Source: US20210380630A1, “Bio-catalyzed Synthesis of New Aromatase Inhibitors through Structural Modifications of Anticancer Drug Formestane” (priority 2021, published 2021)
Like-named read-outs stand apart in the source and are kept apart here.

What was measured:
[1] = target: T1, aromatase (human placental microsomes) (Homo sapiens, UniProt P11511); assay: human placental aromatase assay; format: biochemical
T1 construct: protein (2 mg) from human placental microsomes; from tissue; host or cells: human placenta (microsomal fraction)
T1 sequence (P11511 1-503): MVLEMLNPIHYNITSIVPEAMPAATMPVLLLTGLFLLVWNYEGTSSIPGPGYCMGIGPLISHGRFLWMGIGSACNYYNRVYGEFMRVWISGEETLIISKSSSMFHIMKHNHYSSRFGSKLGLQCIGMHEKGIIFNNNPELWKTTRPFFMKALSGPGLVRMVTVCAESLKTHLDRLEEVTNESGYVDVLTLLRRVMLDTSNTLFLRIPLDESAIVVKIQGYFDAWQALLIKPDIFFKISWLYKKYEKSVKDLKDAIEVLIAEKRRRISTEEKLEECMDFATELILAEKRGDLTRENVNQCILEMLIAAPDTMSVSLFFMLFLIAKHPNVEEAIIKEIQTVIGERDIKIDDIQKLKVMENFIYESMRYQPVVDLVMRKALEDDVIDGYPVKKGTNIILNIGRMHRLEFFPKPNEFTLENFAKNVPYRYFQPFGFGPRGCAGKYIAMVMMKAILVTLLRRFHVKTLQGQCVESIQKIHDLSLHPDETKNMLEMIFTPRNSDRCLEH

[2] = tested on: human fibroblast (BJ) normal cell line; assay: cytotoxicity against BJ normal cell line

`C[C@]12CCC(=O)C(O)=C1CC[C@@H]1[C@@H]2CC[C@]2(C)C(=O)CC[C@@H]12` [Compound 1, Formestane] was tested, and the IC50 [1] was 335 ± 11 nM.
`C[C@]12CC[C@H]3[C@@H]([C@H](O)C[C@@]4(O)[C@H](O)C(=O)CC[C@]34C)[C@@H]1CCC2=O` [Compound 2, 4α,5α,7α-Trihydroxyandrostane-3,17-dione] showed an IC50 [1] of 5230 ± 94 nM.
For `C[C@]12CC[C@H](O)C(=O)C1C[C@H](O)[C@@H]1[C@@H]2CC[C@]2(C)C(=O)CC[C@@H]12` (stereo partly drawn) [Compound 3, 3β,7β-Dihydroxyandrostane-4,17-dione], the IC50 ([1]; human placental microsomes, 10 μM testosterone, estradiol by UPLC, read-out: IC50 aromatase inhibition) was 1370 ± 29 nM.
Work on `C[C@]12CC[C@H]3[C@@H]([C@@H](O)C[C@@]4(O)C(=O)[C@@H](O)CC[C@]34C)[C@@H]1CCC2=O` [Compound 4, 3β,5α,7β-Trihydroxyandrostane-4,17-dione] yielded an IC50 [1] of 386 ± 72 nM.
For `C[C@]12C=CC(=O)C(O)=C1CC[C@@H]1[C@@H]2[C@H](O)C[C@]2(C)C(=O)CC[C@@H]12` [Compound 5, 4,11α-Dihydroxyandrosta-1,4-diene-3,17-dione], the “cytotoxicity to BJ normal cell line” value [2] was “non-cytotoxic” and the IC50 [1] was 34300 ± 532 nM.
